Where two headings read alike, the source gives them in different places. Values belong to the molecule of their own block, whether it stands above or below them.
Key:
NADPH-oxidase = molecular target: T1, NADPH-oxidase (Homo sapiens, UniProt P04839); assay: Oxidase Inhibition Assay (PMA-stimulated superoxide-mediated reduction of Cytochrome c, whole cells); type: cell-based
T1 construct: endogenous in cells; host or cells: human neutrophils isolated from buffy coat
T1 sequence (P04839 1-570): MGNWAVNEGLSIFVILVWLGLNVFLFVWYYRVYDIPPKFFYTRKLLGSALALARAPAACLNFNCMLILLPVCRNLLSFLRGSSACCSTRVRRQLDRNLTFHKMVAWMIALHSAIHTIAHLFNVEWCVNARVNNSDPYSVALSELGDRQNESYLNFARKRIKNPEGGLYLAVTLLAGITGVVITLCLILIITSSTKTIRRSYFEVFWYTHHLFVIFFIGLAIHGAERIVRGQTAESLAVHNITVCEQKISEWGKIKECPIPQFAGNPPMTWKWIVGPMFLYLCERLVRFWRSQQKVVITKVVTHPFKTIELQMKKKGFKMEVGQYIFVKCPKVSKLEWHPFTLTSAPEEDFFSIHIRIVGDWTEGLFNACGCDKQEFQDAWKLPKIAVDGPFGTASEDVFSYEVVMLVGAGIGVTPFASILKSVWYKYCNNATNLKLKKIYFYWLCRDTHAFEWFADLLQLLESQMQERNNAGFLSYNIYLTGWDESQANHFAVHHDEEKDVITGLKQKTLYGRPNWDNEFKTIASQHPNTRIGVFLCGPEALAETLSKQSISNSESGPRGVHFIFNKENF
Method: Whole cells (human neutrophils) are incubated with a pro-inflammatory agonist phorbol myristate acetate (PMA) in the presence or absence of test compound to measure the superoxide-mediated reduction of Cytochrome c at 550 nm. Inhibition of the oxidase is determined by a decreased absorbance at 550 nm, in response to test compound, relative to the absorbance seen with a vehicle control.
The buffy coat from one unit of blood is split evenly into four 50 mL tubes. To each tube 30 mL 3% Dextran (in 0.9% NaCl) is added and the tubes are inverted to mix. Tubes are allowed to sit undisturbed for 25 minutes. The resulting supernatant is recovered into four fresh tubes and centrifuged for 10 minutes at 600×g, 4° C. The supernatant is discarded and pellets are resuspended in 35 mL 0.9% saline. 10 mL Ficoll-Paque PLUS (Pharmacia Biotech AB) is layered beneath the cell suspension and centrifuged at 600×g for 40 minutes at room temperature. The supernatant is again discarded and tubes are tapped to loosen the resulting pellets. 20 mL 0.2% ice cold saline is added for 30 seconds followed by 20 mL 1.6% ice cold saline to lyse the remaining erythrocytes in the pellets. The pellets are centrifuged for 10 minutes at 600×g, 4° C., and the supernatant is discarded. The neutrophil pellets are resuspended in HBSS-glucose buffer (1 mg/mL), adding 2.5 mL to each tube for a total volume of 10 mL. The cell suspension is then counted on a hemocytometer.
The cell suspension is diluted to a concentration of 5×10^6/mL in HBSS-glucose and treated with 1 μg/mL Cytochalasin B (5 mg/mL DMSO) for 10 minutes at 37° C. in a shaking water bath. Cells are diluted to 6×10^5 cells/mL in 92 μM Cytochrome C for a final concentration of 5×10^4 cells/well.
The NADPH-oxidase assay is run on a Biomek 2000 workstation. The workstation adds 2.5 μL compound per well from source plates plus 12.5 μL per well 4 μM PMA (agonist). This volume is brought up to 100 μL total per well in the assay plates upon the addition of the prepared cells (85 μL). The final concentration of drug is 25 μM and PMA is 0.5 μM under these conditions.
The QC curve is a dose-response curve (from about 31.25 nM to about 4000 nM) for competitive binding against a known oxidase inhibitor such as DPI (diphenylene iodonium chloride). The format used for each compound tested is as follows:
The plates are incubated for 1 hour at 37° C. without CO2. The plates are then incubated at room temperature for 30 minutes and the absorbance is read at 550 nm.

[1] = tested on: potassium peroxochromate arthritis; settings: mice, cited from earlier work
[2] = tested on: reactive oxygen species (ROS); settings: human patients with rheumatoid arthritis and osteoarthritis, pharmacological doses; cited from earlier work

Structure (SMILES): c1ccc2c(c1)[I+]c1ccccc1-2 [DPI, diphenylene iodoniumchloride]
- inhibition at 10 µM (NADPH-oxidase; QC wells G-H, 2.5 μL of 10 μM DPI, at 250 nm (so in the source), agonist added): ~70%
- inhibition of the arthritis ([1]; 10 mmol/kg): Complete inhibition
- inhibition of the arthritis ([1]; daily doses of 2.8 μmol/kg): 50%

- IC50 (NADPH-oxidase; human neutrophils, PMA 0.5 μM, absorbance at 550 nm): 1000 nM
- melting point: 251 to 254 °C
Structure (SMILES): Cc1cc(C#Cc2ccc(Cl)cc2)ccc1OCCNCc1ccc(CNCCC2CCCN2C)cc1 (stereo not drawn) [Compound 13, N^1-[2-[4-[(4-chlorophenyl)ethynyl]-2-methylphenoxy]ethyl]-N^4-[2-(1-methyl-2-pyrrolidinyl)ethyl]-1,4-benzenedimethanamine]

Structure (SMILES): CN1C(C(=O)Nc2ccccn2)=C(O)c2ccccc2S1(=O)=O [Piroxicam]
- reduction of levels of ROS [2]: 25%

Source: patent US7476672B2, “Acetylenic compounds useful in treating inflammatory disorders” (Janssen Pharmaceutica N.V., priority 2002, dated 2009)
